Test results as given in patent publication US20070056052A1, “Methods of generating knock-out rodents” (priority 2001, published 2007).
Entries after “also recorded” stand apart in the source; their conditions may differ.

Experiments:
[1] = tested on: male rats (SD, F344, WF); experiment: Effects of ENU treatment on male rat fertility (breeding to same-strain females); format: in vivo; conditions: for % fertile males: weeks 7-26 post-ENU
Description: (§1) ENU mutagenesis rat protocol: Pathogen-free inbred Wistar Furth (WF), inbred Fischer-344 (F344) and outbred Sprague Dawley (SD) male and female rats were obtained from Harlan Sprague Dawley, Inc. (Indianapolis, Ind.). All rats were given Teklad Lab Blox chow (Harlan Teklad, Madison, Wis.), acidified water ad libitum, and were housed under a 12-h light/12-h dark cycle. After a one week acclimation period, nine-week-old male rats were administered ENU as a single intraperitoneal injection; for a split dose, rats were injected with ENU once at 9 weeks of age and again at 10 weeks of age. One gram of ENU (Sigma) was dissolved in 10 mls of 95% ethanol and then diluted with 90 mls of phosphate citrate buffer prior to injection. All injections of ENU were given in the morning hours. To characterize the effect of ENU treatment on fertility in the various rat strains, mutagenized males were paired with untreated females of the same strain for consecutive 2-3 week periods, beginning 3-5 weeks after the first ENU treatment and continuing a minimum of 26 weeks post-ENU. We observed female rats for vaginal plugs, gross pregnancy and date of birth/size of litters. For our phenotypic mutant (phenodeviant) rat screening experiments, ENU-treated SD male rats were bred with SD female rats and all F1 pups were visually checked for gross abnormalities in physical development or behavior as compared to littermates at least twice prior to weaning at approximately 21 days of age. A subset of the F1 phenodeviant rats identified was bred to SD rats to determine inheritance of the observed phenotypic mutation. Several of the heritable phenodeviant rat lines are currently being maintained and backcrossed to eliminate residual ENU-induced genetic changes not associated with the phenotypic mutation.
Optimization of ENU dosages: We examined several rat strains, inbred WF and F344 rats and outbred SD rats in which groups of male rats were given either single or split doses of ENU. These male rats were then bred to same-strain female rats at various times post-ENU to test for fertility (Table 1). The three rat strains were unable to regain fertility following large doses of ENU. The WF strain was extremely sensitive to ENU-induced sterility. […] The SD and F344 strains responded in a similar manner with maximum ENU doses of 100-150 mg/kg, allowing for some percentage of rats to remain fertile or recover fertility; however, the F344 strain was more sensitive to split dose protocols compared to the SD rats. […] This phenomenon was also true for the both the F344 and WF rat strains. […] It also appears from the SD and F344 fertility data shown in Table 1 that these rat strains were more likely to remain fertile or regain fertility following a split dose of ENU versus a single dose when the total dose exposure was equal. In addition, average litter size was reduced in both the SD and F344 strains around weeks 1-9 post-ENU (data not shown), the same time period in which we observed reduced fertility in the ENU-treated males.

[2] = tested on: SD male rats (germ line); experiment: Visual phenodeviant screen of F1 pups from ENU-treated SD males; format: in vivo, rat
Description: as §1
Phenodeviant rat production: Multiple ENU dosing protocols in the SD rat strain determine their germline mutagenic potential by breeding ENU-treated SD males to females of the same strain to produce F1 offspring. These pups were examined for readily observable physical or behavioral abnormalities. Phenodeviants were identified at all doses listed in Table 2 with a variety of abnormalities observed. Phenodeviant F1 pups were born at various times between 6-52 weeks post-ENU treatment of male founders. The most frequent abnormalities visually identified were those of the eyes, tail, and growth. […] Selected phenodeviant rat F1 pups were maintained and bred to determine the heritability of the physical abnormalities (Table 3). […] These abnormalities were diverse (Table 4).

[3] = tested on: male rats; experiment: Toxicity and lifespan observation of ENU-treated male rats; format: in vivo, rat
Description: as §1, with “For our phenotypic mutant (phenodeviant) rat screening experiments, ENU-treated SD male rats were bred with SD female rats and all F1 pups were visually checked for gross abnormalities in physical development or behavior as compared to littermates at least twice prior to weaning at approximately 21 days of age. A subset of the F1 phenodeviant rats identified was bred to SD rats to determine inheritance of the observed phenotypic mutation. Several of the heritable phenodeviant rat lines are currently being maintained and backcrossed to eliminate residual ENU-induced genetic changes not associated with the phenotypic mutation.” left out

CCN(N=O)C(N)=O [ENU, N-ethyl-N-nitrosourea]
fertility of treated males ([1]; F344, 75 mg/kg): All rats remained fertile
rats that maintained fertility ([1]; F344, 100 mg/kg given in either a single or split dose): about 60%
% fertile males ([1]; F344, single dose 75 mg/kg i.p.): 100%
% fertile males ([1]; F344, single dose 100 mg/kg i.p.): 67%
% fertile males ([1]; F344, single dose 120 mg/kg i.p.): 0%
% fertile males ([1]; F344, split dose 2 × 50 mg/kg): 60%
% fertile males ([1]; F344, split dose 2 × 60 mg/kg): 40%
% fertile males ([1]; F344, split dose 2 × 75 mg/kg): 0%
% fertile males ([1]; F344, split dose 2 × 100 mg/kg): 0%
maximum ENU doses allowing some percentage of rats to remain fertile or recover fertility ([1]; SD and F344 strains): 100 to 150 mg/kg
average litter size ([1]; SD and F344 strains, around weeks 1-9 post-ENU (data not shown)): reduced
% fertile males ([1]; SD, single dose 75 mg/kg i.p.): 100%
% fertile males ([1]; SD, single dose 100 mg/kg i.p.): 80%
% fertile males ([1]; SD, single dose 120 mg/kg i.p.): 33%
% fertile males ([1]; SD, single dose 150 mg/kg i.p.): 0%
% fertile males ([1]; SD, single dose 200 mg/kg i.p.): 0%
fertility of treated males ([1]; SD, split dose 2×50 mg/kg or 2×60 mg/kg, after a brief recovery period): fully fertile
% fertile males ([1]; SD, split dose 2 × 50 mg/kg): 100%
% fertile males ([1]; SD, split dose 2 × 60 mg/kg): 100%
% fertile males ([1]; SD, split dose 2 × 75 mg/kg): 20%
% fertile males ([1]; SD, split dose 2 × 100 mg/kg): 0%
maximum total dose after which fertile males were obtained ([1]; WF strain): 50 mg/kg
male rats permanently sterilized ([1]; WF, 25 mg/kg single injection): approximately 70%
% fertile males ([1]; WF, single dose 25 mg/kg i.p.): 30%
% fertile males ([1]; WF, single dose 35 mg/kg i.p.): 33%
% fertile males ([1]; WF, single dose 50 mg/kg i.p.): 25%
% fertile males ([1]; WF, single dose 75 mg/kg i.p.): 0%
% fertile males ([1]; WF, single dose 100 mg/kg i.p.): 0%
% fertile males ([1]; WF, split dose 2 × 15 mg/kg): 17%
% fertile males ([1]; WF, split dose 2 × 25 mg/kg): 17%
% fertile males ([1]; WF, split dose 2 × 50 mg/kg): 0%
% fertile males ([1]; WF, split dose 2 × 75 mg/kg): 0%
F1 phenodeviant rats, abnormality observed: behavioral ([2]; single dose 100 mg/kg): 1
F1 phenodeviant rats, abnormality observed: craniofacial ([2]; single dose 100 mg/kg): 0
F1 phenodeviant rats, abnormality observed: ear ([2]; single dose 100 mg/kg): 1
F1 phenodeviant rats, abnormality observed: eye ([2]; single dose 100 mg/kg): 5
F1 phenodeviant rats, abnormality observed: gonad ([2]; single dose 100 mg/kg): 1
F1 phenodeviant rats, abnormality observed: growth (<50% littermates) ([2]; single dose 100 mg/kg): 0
F1 phenodeviant rats, abnormality observed: limb/digit ([2]; single dose 100 mg/kg): 0
F1 phenodeviant rats, abnormality observed: multiple ([2]; single dose 100 mg/kg): 0
F1 phenodeviant rats, abnormality observed: skin/hair ([2]; single dose 100 mg/kg): 0
F1 phenodeviant rats, abnormality observed: tail ([2]; single dose 100 mg/kg): 0
total number of phenodeviants ([2]; single dose 100 mg/kg, 1251 F1 rats examined): 8
F1 phenodeviant rats, abnormality observed: behavioral ([2]; single dose 120 mg/kg): 0
F1 phenodeviant rats, abnormality observed: craniofacial ([2]; single dose 120 mg/kg): 0
F1 phenodeviant rats, abnormality observed: ear ([2]; single dose 120 mg/kg): 1
F1 phenodeviant rats, abnormality observed: eye ([2]; single dose 120 mg/kg): 1
F1 phenodeviant rats, abnormality observed: gonad ([2]; single dose 120 mg/kg): 0
F1 phenodeviant rats, abnormality observed: growth (<50% littermates) ([2]; single dose 120 mg/kg): 0
F1 phenodeviant rats, abnormality observed: limb/digit ([2]; single dose 120 mg/kg): 0
F1 phenodeviant rats, abnormality observed: multiple ([2]; single dose 120 mg/kg): 0
F1 phenodeviant rats, abnormality observed: skin/hair ([2]; single dose 120 mg/kg): 0
F1 phenodeviant rats, abnormality observed: tail ([2]; single dose 120 mg/kg): 1
total number of phenodeviants ([2]; single dose 120 mg/kg, 419 F1 rats examined): 3
F1 phenodeviant rats, abnormality observed: behavioral ([2]; split dose 2 × 50 mg/kg): 0
F1 phenodeviant rats, abnormality observed: craniofacial ([2]; split dose 2 × 50 mg/kg): 0
F1 phenodeviant rats, abnormality observed: ear ([2]; split dose 2 × 50 mg/kg): 0
F1 phenodeviant rats, abnormality observed: eye ([2]; split dose 2 × 50 mg/kg): 4
F1 phenodeviant rats, abnormality observed: gonad ([2]; split dose 2 × 50 mg/kg): 0
F1 phenodeviant rats, abnormality observed: growth (<50% littermates) ([2]; split dose 2 × 50 mg/kg): 0
F1 phenodeviant rats, abnormality observed: limb/digit ([2]; split dose 2 × 50 mg/kg): 0
F1 phenodeviant rats, abnormality observed: multiple ([2]; split dose 2 × 50 mg/kg): 0
F1 phenodeviant rats, abnormality observed: skin/hair ([2]; split dose 2 × 50 mg/kg): 0
F1 phenodeviant rats, abnormality observed: tail ([2]; split dose 2 × 50 mg/kg): 3
total number of phenodeviants ([2]; split dose 2 × 50 mg/kg, 782 F1 rats examined): 7
F1 phenodeviant rats, abnormality observed: behavioral ([2]; split dose 2 × 60 mg/kg): 0
F1 phenodeviant rats, abnormality observed: craniofacial ([2]; split dose 2 × 60 mg/kg): 2
F1 phenodeviant rats, abnormality observed: ear ([2]; split dose 2 × 60 mg/kg): 0
F1 phenodeviant rats, abnormality observed: eye ([2]; split dose 2 × 60 mg/kg): 37
F1 phenodeviant rats, abnormality observed: gonad ([2]; split dose 2 × 60 mg/kg): 0
F1 phenodeviant rats, abnormality observed: growth (<50% littermates) ([2]; split dose 2 × 60 mg/kg): 10
F1 phenodeviant rats, abnormality observed: limb/digit ([2]; split dose 2 × 60 mg/kg): 5
F1 phenodeviant rats, abnormality observed: multiple ([2]; split dose 2 × 60 mg/kg): 6
F1 phenodeviant rats, abnormality observed: skin/hair ([2]; split dose 2 × 60 mg/kg): 6
F1 phenodeviant rats, abnormality observed: tail ([2]; split dose 2 × 60 mg/kg): 13
total number of phenodeviants ([2]; split dose 2 × 60 mg/kg, 5163 F1 rats examined): 79
lifespan and tumors of fertile mutagenized male rats ([3]; about one year post-ENU): shortened, with many developing skin and kidney tumors and lymphomas at approximately one year of age
acute toxicity to male rats ([3]; all doses of Table 1, SD, F344, WF): none of the ENU doses used were toxic to the male rats; also recorded: None of the doses listed in Table 1 were acutely toxic
